# Patent US10167262B2, “Herbicidal substituted 3-arylpyrazoles” (FMC CORPORATION, priority 2014, dated 2019)
# Tests used:
# Format in all cases: in vivo
# [1] = system: morningglory (Ipomoea spp.); assay: Test A pre-/postemergence greenhouse herbicide test, visual injury rating 0-100
# How it was run: (§1)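 Postemergence treatment targeted seedlings 2 to 10 cm high with one to two leaves, while preemergence treatment was a directed spray onto freshly planted loam/sand soil. Injury was scored visually about 10 days later.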
# [2] = system: pigweed (Amaranthus retroflexus); assay: as above
# How it was run: as §1
# [3] = system: large (Lg) crabgrass (Digitaria sanguinalis); assay: as above
# How it was run: as §1
# [4] = system: corn (Zea mays); assay: as above
# How it was run: as §1
# [5] = system: barnyardgrass (Echinochloa crus-galli); assay: as above
# How it was run: as §1
# [6] = system: velvetleaf (Abutilon theophrasti); assay: as above
# How it was run: as §1
# [7] = system: wheat (Triticum aestivum); assay: as above
# How it was run: as §1
# [8] = system: giant foxtail (Setaria faberii); assay: as above
# How it was run: as §1
# [9] = system: sedge, umbrella (small-flower umbrella sedge, Cyperus difformis); assay: Test B flooded paddy test, plant response rating 0-100; conditions: Flood, 250 g ai/ha; scale 0 to 100 (0 no effect, 100 complete control); 13 to 15 days
# Excerpt: (§2) At time of treatment, test pots were flooded to 3 cm above the soil surface, treated by application of test compounds directly to the paddy water, and then maintained at that water depth for the duration of the test. Treated plants and controls were maintained in a greenhouse for 13 to 15 days, after which time all species were compared to controls and visually evaluated. […] A dash (-) response means no test result.
# [10] = system: rice (Oryza sativa); assay: as above; conditions: Flood, 250 g ai/ha; scale 0 to 100 (0 no effect, 100 complete control); 13 to 15 days
# Excerpt: as §2
# [11] = system: barnyardgrass (Echinochloa crus-galli); assay: as above; conditions: Flood, 250 g ai/ha; scale 0 to 100 (0 no effect, 100 complete control); 13 to 15 days
# Excerpt: as §2
# [12] = system: ducksalad (Heteranthera limosa); assay: as above; conditions: Flood, 250 g ai/ha; scale 0 to 100 (0 no effect, 100 complete control); 13 to 15 days
# Excerpt: as §2
Compound,"Plant response rating (0 to 100 scale), Morningglory ([1]; Postemergence, 125 g ai/ha)","Plant response rating (0 to 100 scale), Morningglory ([1]; Postemergence, 500 g ai/ha)","Morningglory plant response rating (0 = no effect, 100 = complete control) ([1]; Preemergence, 125 g ai/ha)","Plant response rating (0 to 100 scale), Morningglory ([1]; Preemergence, 500 g ai/ha)","Plant response rating (0 to 100 scale), Pigweed ([2]; Postemergence, 125 g ai/ha)","Plant response rating (0 to 100 scale), Pigweed ([2]; Postemergence, 500 g ai/ha)","Pigweed plant response rating (0 = no effect, 100 = complete control) ([2]; Preemergence, 125 g ai/ha)","Plant response rating (0 to 100 scale), Pigweed ([2]; Preemergence, 500 g ai/ha)","Plant response rating (0 to 100 scale), Crabgrass, Large ([3]; Postemergence, 125 g ai/ha)","Plant response rating (0 to 100 scale), Crabgrass, Large ([3]; Postemergence, 500 g ai/ha)","Crabgrass, Large plant response rating (0 = no effect, 100 = complete control) ([3]; Preemergence, 125 g ai/ha)","Plant response rating (0 to 100 scale), Crabgrass, Large ([3]; Preemergence, 500 g ai/ha)","Corn plant response rating (0 = no effect, 100 = complete control) ([4]; Preemergence, 125 g ai/ha)","Plant response rating (0 to 100 scale), Corn ([4]; Preemergence, 500 g ai/ha)","Plant response rating (0 to 100 scale), Barnyardgrass ([5]; Postemergence, 125 g ai/ha)","Plant response rating (0 to 100 scale), Barnyardgrass ([5]; Postemergence, 500 g ai/ha)","Plant response rating, Sedge, Umbrella [9]","Plant response rating, Rice [10]","Plant response rating, Barnyardgrass [11]","Plant response rating, Ducksalad [12]",also measured
CCn1cc(C(=O)c2cccnc2)c(-c2cc(Cl)cc(Cl)c2)n1 [Compound 7],0,0,0,0,40,70,20,60,0,0,0,0,0,0,0,0,0,0,0,0,"Plant response rating (0 to 100 scale), Corn ([4]; Postemergence, 125 g ai/ha): 0; Plant response rating (0 to 100 scale), Corn ([4]; Postemergence, 500 g ai/ha): 0; Barnyardgrass plant response rating (0 = no effect, 100 = complete control) ([5]; Preemergence, 125 g ai/ha): 0; Plant response rating (0 to 100 scale), Barnyardgrass ([5]; Preemergence, 500 g ai/ha): 0; Plant response rating (0 to 100 scale), Velvetleaf ([6]; Postemergence, 125 g ai/ha): 50; Plant response rating (0 to 100 scale), Velvetleaf ([6]; Postemergence, 500 g ai/ha): 70; Velvetleaf plant response rating (0 = no effect, 100 = complete control) ([6]; Preemergence, 125 g ai/ha): 0; Plant response rating (0 to 100 scale), Velvetleaf ([6]; Preemergence, 500 g ai/ha): 50; Plant response rating (0 to 100 scale), Wheat ([7]; Postemergence, 125 g ai/ha): 0; Plant response rating (0 to 100 scale), Wheat ([7]; Postemergence, 500 g ai/ha): 0; Wheat plant response rating (0 = no effect, 100 = complete control) ([7]; Preemergence, 125 g ai/ha): 0; Plant response rating (0 to 100 scale), Wheat ([7]; Preemergence, 500 g ai/ha): 0; Plant response rating (0 to 100 scale), Foxtail, Giant ([8]; Postemergence, 125 g ai/ha): 0; Plant response rating (0 to 100 scale), Foxtail, Giant ([8]; Postemergence, 500 g ai/ha): 0; Foxtail, Giant plant response rating (0 = no effect, 100 = complete control) ([8]; Preemergence, 125 g ai/ha): 0; Plant response rating (0 to 100 scale), Foxtail, Giant ([8]; Preemergence, 500 g ai/ha): 0"
C=CCn1cc(C(=O)c2cccnc2)c(-c2cc(Cl)cc(Cl)c2)n1 [Compound 8],0,0,0,0,30,60,0,50,0,0,0,0,0,0,0,0,0,0,0,0,"Plant response rating (0 to 100 scale), Corn ([4]; Postemergence, 125 g ai/ha): 0; Plant response rating (0 to 100 scale), Corn ([4]; Postemergence, 500 g ai/ha): 0; Barnyardgrass plant response rating (0 = no effect, 100 = complete control) ([5]; Preemergence, 125 g ai/ha): 0; Plant response rating (0 to 100 scale), Barnyardgrass ([5]; Preemergence, 500 g ai/ha): 0; Plant response rating (0 to 100 scale), Velvetleaf ([6]; Postemergence, 125 g ai/ha): 10; Plant response rating (0 to 100 scale), Velvetleaf ([6]; Postemergence, 500 g ai/ha): 30; Velvetleaf plant response rating (0 = no effect, 100 = complete control) ([6]; Preemergence, 125 g ai/ha): 0; Plant response rating (0 to 100 scale), Velvetleaf ([6]; Preemergence, 500 g ai/ha): 0; Plant response rating (0 to 100 scale), Wheat ([7]; Postemergence, 125 g ai/ha): 0; Plant response rating (0 to 100 scale), Wheat ([7]; Postemergence, 500 g ai/ha): 0; Wheat plant response rating (0 = no effect, 100 = complete control) ([7]; Preemergence, 125 g ai/ha): 0; Plant response rating (0 to 100 scale), Wheat ([7]; Preemergence, 500 g ai/ha): 0; Plant response rating (0 to 100 scale), Foxtail, Giant ([8]; Postemergence, 125 g ai/ha): 0; Plant response rating (0 to 100 scale), Foxtail, Giant ([8]; Postemergence, 500 g ai/ha): 0; Foxtail, Giant plant response rating (0 = no effect, 100 = complete control) ([8]; Preemergence, 125 g ai/ha): 0; Plant response rating (0 to 100 scale), Foxtail, Giant ([8]; Preemergence, 500 g ai/ha): 0"
C#CCn1cc(C(=O)c2cccnc2)c(-c2cc(Cl)cc(Cl)c2)n1 [Compound 9],0,0,0,0,60,80,60,90,0,0,0,10,0,0,0,10,0,0,0,0,"Barnyardgrass plant response rating (0 = no effect, 100 = complete control) ([5]; Preemergence, 125 g ai/ha): 0; Plant response rating (0 to 100 scale), Barnyardgrass ([5]; Preemergence, 500 g ai/ha): 0; Plant response rating (0 to 100 scale), Velvetleaf ([6]; Postemergence, 125 g ai/ha): 50; Plant response rating (0 to 100 scale), Velvetleaf ([6]; Postemergence, 500 g ai/ha): 60; Velvetleaf plant response rating (0 = no effect, 100 = complete control) ([6]; Preemergence, 125 g ai/ha): 0; Plant response rating (0 to 100 scale), Velvetleaf ([6]; Preemergence, 500 g ai/ha): 80; Plant response rating (0 to 100 scale), Wheat ([7]; Postemergence, 125 g ai/ha): 0; Plant response rating (0 to 100 scale), Wheat ([7]; Postemergence, 500 g ai/ha): 0; Wheat plant response rating (0 = no effect, 100 = complete control) ([7]; Preemergence, 125 g ai/ha): 0; Plant response rating (0 to 100 scale), Wheat ([7]; Preemergence, 500 g ai/ha): 0; Plant response rating (0 to 100 scale), Foxtail, Giant ([8]; Postemergence, 125 g ai/ha): 0; Plant response rating (0 to 100 scale), Foxtail, Giant ([8]; Postemergence, 500 g ai/ha): 0; Foxtail, Giant plant response rating (0 = no effect, 100 = complete control) ([8]; Preemergence, 125 g ai/ha): 0; Plant response rating (0 to 100 scale), Foxtail, Giant ([8]; Preemergence, 500 g ai/ha): 20"
CCn1cc(C(=O)c2ccccc2)c(-c2cc(F)cc(Br)c2)n1 [Compound 10],,,,,,,,,,,,,,,,,0,0,0,0,"Plant response rating (0 to 100 scale), Morningglory ([1]; Postemergence, 1000 g ai/ha): 0; Plant response rating (0 to 100 scale), Morningglory ([1]; Preemergence, 1000 g ai/ha): 0; Plant response rating (0 to 100 scale), Pigweed ([2]; Postemergence, 1000 g ai/ha): 90; Plant response rating (0 to 100 scale), Pigweed ([2]; Preemergence, 1000 g ai/ha): 100; Plant response rating (0 to 100 scale), Crabgrass, Large ([3]; Postemergence, 1000 g ai/ha): 0; Plant response rating (0 to 100 scale), Crabgrass, Large ([3]; Preemergence, 1000 g ai/ha): 0; Plant response rating (0 to 100 scale), Corn ([4]; Postemergence, 1000 g ai/ha): 0; Plant response rating (0 to 100 scale), Corn ([4]; Preemergence, 1000 g ai/ha): 0; Plant response rating (0 to 100 scale), Barnyardgrass ([5]; Postemergence, 1000 g ai/ha): 0; Plant response rating (0 to 100 scale), Barnyardgrass ([5]; Preemergence, 1000 g ai/ha): 0; Plant response rating (0 to 100 scale), Velvetleaf ([6]; Postemergence, 1000 g ai/ha): 90; Plant response rating (0 to 100 scale), Velvetleaf ([6]; Preemergence, 1000 g ai/ha): 90; Plant response rating (0 to 100 scale), Wheat ([7]; Postemergence, 1000 g ai/ha): 0; Plant response rating (0 to 100 scale), Wheat ([7]; Preemergence, 1000 g ai/ha): 0; Plant response rating (0 to 100 scale), Foxtail, Giant ([8]; Postemergence, 1000 g ai/ha): 0; Plant response rating (0 to 100 scale), Foxtail, Giant ([8]; Preemergence, 1000 g ai/ha): 0"
